Test results reported in PMC10916402, “Meropenem-ANT3310, a unique β-lactam-β-lactamase inhibitor combination with expanded antibacterial spectrum against Gram-negative pathogens including carbapenem-resistant Acinetobacter baumannii” (Antimicrobial Agents and Chemotherapy, 2024).
In brackets after ≈: the same amount, converted by molar mass. Where two headings read alike, the source gives them in different places.

Tests used:
[1] = system: A. baumannii ACC00445 (OXA-23); experiment: Murine thigh infection model; type: in vivo, neutropenic male CD-1 mice; conditions: 9-h model, MEM 300 mg/kg IV every 2 h alone
[2] = design: method as in PMID 32297801; conditions: 2 g MEM q8h as a 3-h IV infusion, MEM-vaborbactam clinical trials; cited from earlier work
[3] = system: A. baumannii clinical isolates; experiment: Broth microdilution MIC, A. baumannii clinical isolates; type: cell-based, Acinetobacter baumannii; conditions: for CLSI % Res / CLSI % Sus: CLSI BP; for CLSI % Res: for MEM-ANT3310 % at ≥16 µg/mL; for CLSI % Sus: for MEM-ANT3310 % inhibited at ≤8 µg/mL; for EUCAST % Res / EUCAST % Sus: EUCAST BP
In short: (§1)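 Broth microdilution per CLSI and EUCAST in cation-adjusted Mueller Hinton broth, iron-depleted for cefiderocol; ANT3310 panels prepared fresh on test day. Isolates collected 2018–2019, identity confirmed by MALDI-TOF. MIC taken as first well without visible growth, interpreted with 2023 CLSI and EUCAST breakpoints.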

[4] = system: OXA-producing Enterobacterales (OXA-CRE); experiment: organism not typed; type: cell-based
In short: as §1

[5] = 2018 Global collection, All A. baumannii, N 500
[6] = 2019 Global collection, All A. baumannii, N 405

C[C@@H](O)[C@H]1C(=O)N2C(C(=O)O)=C(S[C@@H]3CN[C@H](C(=O)N(C)C)C3)[C@H](C)[C@H]12 [MEM, meropenem]
bacterial counts compared to the vehicle-treated group [1]: No reductions in bacterial counts | safety and tolerability [2]: generally safe and well tolerated | % of isolates resistant to MEM (CLSI, MIC ≥8 µg/mL) ([3]; 905 A. baumannii isolates, overall): 78% | MIC50 [3, 5]: >32 µg/mL | MIC90 [3, 5]: >32 µg/mL | Number of isolates inhibited at MIC of 0.25 µg/mL [3, 5]: 52 | Number of isolates inhibited at MIC of 0.5 µg/mL [3, 5]: 42 | Number of isolates inhibited at MIC of 1 µg/mL [3, 5]: 21 | Number of isolates inhibited at MIC of 2 µg/mL [3, 5]: 9 | Number of isolates inhibited at MIC of 4 µg/mL [3, 5]: 6 | Number of isolates inhibited at MIC of 8 µg/mL [3, 5]: 5 | Number of isolates inhibited at MIC of 16 µg/mL [3, 5]: 16 | Number of isolates inhibited at MIC of 32 µg/mL [3, 5]: 64 | Number of isolates inhibited at MIC of >32 µg/mL [3, 5]: 278 | Number of isolates inhibited at MIC of ≤0.125 µg/mL [3, 5]: 7 | CLSI % Res [3, 5]: 72.6% | CLSI % Sus [3, 5]: 26.2% | EUCAST % Res [3, 5]: 71.6% | EUCAST % Sus [3, 5]: 26.2% | MIC50 [3, 6]: >32 µg/mL | Number of isolates inhibited at MIC of 0.25 µg/mL [3, 6]: 31 | Number of isolates inhibited at MIC of 0.5 µg/mL [3, 6]: 18 | Number of isolates inhibited at MIC of 1 µg/mL [3, 6]: 1 | Number of isolates inhibited at MIC of 2 µg/mL [3, 6]: 5 | Number of isolates inhibited at MIC of 4 µg/mL [3, 6]: 3 | Number of isolates inhibited at MIC of 8 µg/mL [3, 6]: 9 | Number of isolates inhibited at MIC of 16 µg/mL [3, 6]: 12 | Number of isolates inhibited at MIC of 32 µg/mL [3, 6]: 66 | Number of isolates inhibited at MIC of >32 µg/mL [3, 6]: 253 | Number of isolates inhibited at MIC of ≤0.125 µg/mL [3, 6]: 7 | CLSI % Res [3, 6]: 83.9% | CLSI % Sus [3, 6]: 15.3% | EUCAST % Res [3, 6]: 81.7% | EUCAST % Sus [3, 6]: 15.3% | MEM-resistance rate ([3]; A. baumannii isolates from Asia/Pacific): 74% | MEM-resistance rate ([3]; A. baumannii isolates from Middle East): 91% | MEM-resistance rate ([3]; A. baumannii isolates from North America): 40% | MIC90 ([3]; Acinetobacter baumannii, 2018 Global collection, All A. baumannii, N 500, read-out: MIC90): > 32 µg/mL | MIC90 ([3]; Acinetobacter baumannii, 2019 Global collection, All A. baumannii, N 405, read-out: MIC90): > 32 µg/mL | MIC90 ([3]; Acinetobacter baumannii, A. baumannii, one or both of the 2018/2019 collections, read-out: MIC90): ≥ 32 µg/mL | MIC50 ([3]; Acinetobacter baumannii, combined A. baumannii 2018–2019 collection (n = 905), ANT3310 at 8 µg/mL, read-out: MIC50): > 32 µg/mL | MIC90 ([3]; Acinetobacter baumannii, combined A. baumannii 2018–2019 collection (n = 905), ANT3310 at 8 µg/mL, read-out: MIC90): > 32 µg/mL | MIC50 [4]: 16 µg/mL (≈ 41.7 µM) | MIC90 [4]: > 32 µg/mL | MIC90 ([4]; 252 OXA-producing Enterobacterales, 2018 global collection): >32 µg/mL | CLSI % Res ([4]; 252 OXA-producing Enterobacterales, CLSI BP, for MEM-ANT3310 % at ≥16 µg/mL): 89.7%
